Test results taken from patent US5840893A, “Compounds for treating infectious diseases” (priority 1996, dated 1998).
Where “and” joins values, the source holds several entries; their conditions need not be identical. Equal entries are not always repeated. Entries after “also recorded” stand apart in the source; their conditions may differ. Where two headings read alike, the source gives them in different places.

Experiments:
mice = assay: Toxicity study: median lethal dose in mice, i.p.; assay type: in vivo
Experimental: (§1) The doses of compounds of the invention found to be lethal to 50% of the mice (LD50) were determined by intraperitoneal injection of groups of five animals with increasing doses of each compound. CNI-0294 was administered from 0, 2, 10, 20, 40, 80, 160, 320, 640, 1280 mg/kg in 0.5 ml of water/HCl; CNI-1594 at 0, 2.4, 5, 10, 20, 40, 80 mg/kg in 0.5 ml of water/HCl; CNI-1794 at 0, 20, 50, 80 mg/kg in 0.5 ml of water/HCl; and CNI-1894 at 0, 10, 20, 40, 80, 240, 480, 960 mg/kg in water/HCl. […] The percentage of animals in each group which died were utilized to calculate the LD50 by non-linear curve fitting with the Enzfit software (Elsevier Bioscience; Cambridge, UK) programmed with the Chou equation (Chou 1976, J Theor Biol 39:253-276)).
(§2) The compounds (FIGS. 4A-E), were screened for toxicity via a modified LD50 assay procedure as described above in an outbred strain of mice.

HIV-1 = assay: Inhibition of HIV-1 replication in cultured macrophages (Table I); assay type: cell-based; details: Human immunodeficiency virus 1, Macrophage; 50% inhibition of viral growth, RT or p24, macrophages
Experimental: A quantitative measurement of the activity of the compounds of the invention to block the replication of HIV-1 in non-dividing cells can be determined by culture of a macrophage-tropic strain of HIV-1 on peripheral blood-derived macrophages. The cells are cultured for 5-6 days prior to infection in a medium consisting of DMEM supplemented with 10% type A/B human serum and 200 U/ml Macrophage Colony Stimulating Factor, with half the medium changed after 3 days, to reach a density of about 10^6 cells per 5 ml well. A macrophage-tropic viral stock may be grown on these cells. The concentration of infectious particles in the stock is estimated by measurement of p24 antigen concentration.
To test the effect of compounds of the invention on HIV- 1 infection in the above-described culture system, the medium is removed and replaced with medium containing HIV-1 at a concentration of 1 ng of p24 (10^4 TCID50 /ml (TCID=tissue culture infectious doses)) and a known concentration of the compound of the invention (the inhibitor). After 24 hours, the cultures are washed to remove non-adherent virus and the culture is re-fed with medium containing the inhibitor at the desired concentration. The amount of replication of HIV-1 is estimated by an assay of the reverse transcriptase activity or by an assay of the concentration of p24 antigen in the culture medium every 2-3 days throughout the post-infection period. In a preferred embodiment the anti-HIV potency of the candidate drug is measured by comparison of the concentration of reverse transcriptase (RT) or of p24 antigen in the medium of the treated and control cultures at the time of the peak of these values in non-treated control cultures, that is about day 5 or 6 post-infection. Repetition at various levels of inhibitor allows for the calculation of the concentration of inhibitor that achieves 50% inhibition of viral growth, IC50. Table I discloses the IC50 of various inhibitors.

[1] = for Clearance: Table IV, measured in a 25 gr mouse
Experimental: (§4) Standard addition curves for each test compound were constructed by adding increased amounts of drug to mouse or human A^+ plasma (Long Island Blood Services; Melville, N.Y.). […] The eluted sample was reduced to dryness in a rotary evaporator and resuspended in 1.0 ml Buffer A.
(§5) Female ND4 Swiss Webster mice (21-24 g) were obtained from Harlan Sprague Dawley (Indianapolis, Ind.) and randomly placed in groups of five in cages with free access to food and water. […] The other CNI compounds were administered intraperitoneally or by oral gavage as a solution in water titrated with sufficient HCl to dissolve the drug. At various time points, ranging from 5 min to 4 days, a single group of animals was euthanized by carbon dioxide inhalation and bled by cardiac puncture using heparin as an anticoagulant. The blood from the five mice in the group was pooled and centrifuged at 14000×g for 10 min. The volume of plasma was measured, and equal volume of Buffer A added, and the mixture extracted and analyzed as described above, except that the dried eluates were resuspended in 200 μl Buffer A and 100 μl was injected onto the high performance liquid chromatography (HPLC) system.
(§6) The area under the plasma concentration-time curve (AUC) was determined, and bioavailability was measured as AUCoral /AUCi.p.. […] The volume of distribution (VD) was calculated as dose/B, and the total clearance rate (Cltot) calculated as β*VD. Cmax and tmax are the maximal plasma concentration and time of this measurement, respectively.

[2] = system: Plasmodium falciparum clone Dd2; assay: Antimalarial activity in vitro, hypoxanthine incorporation, clone Dd2; assay type: cell-based; details: for IC50: Plasmodium falciparum
Experimental: (§3) The antimalarial activity of the compounds was determined essentially as described in Desjardins et al. supra. Fifty Al of various concentrations of a compound of the invention, chloroquine, or pyrimethamine were added to the wells of microtiter plates, followed by 200 Al of ring-stage, synchronized, P. falciparum-infected erythrocytes (final hematocrit=1.5%, final parasitemia=1-5%). The plates were incubated for 24 hr in a candle jar kept at 37° C., and then 25 μl of [^3 H]-hypoxanthine (Amersham, Arlington Heights, Ill.; 2.5 μl Ci/well) was added. The plates were then incubated for a further 24 hr, before harvesting onto Unifilter-96 GF/C filter-microplates (Packard; Meriden, Conn.). Twenty-five μl of Microscint scintillation fluid (Packard) was added to each well of the filter-microplate, which was subsequently counted in a Top-count microplate scintillation counter (Packard). The percent of [^3 H] -hypoxanthine uptake relative to control infect-erythrocytes was used to determine the IC50 value for the compounds by non-linear regression for LD50 determination.
The Dd2 clone of P. falciparum, which was both chloroquine and pyrimethamine resistant, was utilized to compare the antimalarial activity of the remaining CNI compounds (Table VIII).

in vivo = details: mouse, plasma
Experimental: as §4, §5, §6

in vitro = in vitro ADME, mouse (ND4 Swiss Webster); details: for number of metabolites: mouse liver post-mitochondrial supernatant, NADPH; for metabolised at 1 h: mouse, liver post-mitochondrial supernatant, 60 min incubation, by peak area, read-out: drug altered (metabolic conversion)
Experimental: Several female ND4 Swiss Webster mice were euthanized by carbon dioxide inhalation and the livers excised and rinsed with ice cold phosphate buffered saline (pH 7.4). The livers were minced, gently homogenized in 50 mM phosphate buffer (pH 7.4) with a Dounce homogenizer, and centrifuged at 9600×g for 20 min. The post-mitochondrial supernatant was kept, glycerol added to 20%, and frozen at -70° C. in 1.0 ml aliquots until used. For each incubation, 1.0 ml of a 1.0 mg/ml drug solution was added to 3.0 ml of 50 mM phosphate buffer (pH 7.4), 1.0 ml of 2 mg/ml NADPH in 50 mM phosphate (pH 7.4), and 1.0 ml of the post-mitochondrial supernatant. Five hundred μl of each incubate was then immediately transferred to an ice-cold tube to provide the zero-time sample, and addition 500 μl aliquots removed to ice-cold tubes at 8, 15, 30, and 60 min. The samples were then extracted, and analyzed by HPLC as described in section 7.1. Control incubations were also performed where drug or post-mitochondrial supernatant was omitted. […] Peaks in the CNI compound incubations which increased over time, and were not present in control samples lacking the enzyme preparation were treated as putative metabolites.

[3] = system: Plasmodium falciparum clone W2mef; assay: Antimalarial activity in vitro, hypoxanthine incorporation, clone W2mef; assay type: cell-based
Experimental: as §3

[4] = system: Plasmodium falciparum clone FCR-3; assay: Antimalarial activity in vitro, hypoxanthine incorporation, clone FCR-3; assay type: cell-based
Experimental: as §3

[5] = system: Plasmodium falciparum clone D10; assay: Antimalarial activity in vitro, hypoxanthine incorporation, clone D10; assay type: cell-based
Experimental: as §3

[6] = system: Plasmodium falciparum clone HB3; assay: Antimalarial activity in vitro, hypoxanthine incorporation, clone HB3; assay type: cell-based
Experimental: as §3

[7] = Toxicity study: median lethal dose in mice, i.p.; assay type: in vivo; details: mouse, in vivo, ip
Experimental: as §1, §2

Plasmodium falciparum = assay: Antimalarial activity in vitro, hypoxanthine incorporation, series of clones; assay type: cell-based
Experimental: as §3

Plasmodium berghei = assay: Four day suppression test in Plasmodium berghei infected mice; assay type: in vivo, Plasmodium berghei NYU-2 in female ND4 Swiss Webster mice
Experimental: FIG. 9. The activity of CNI-0294 against Plasmodium berghei infected mice. Female ND4 Swiss Webster mice were infected with infected erythrocytes and then treated once daily, for four days, with 50 mg/kg CNI-0294, or with distilled water. Six hours after the last dose, thin blood smears were made from each of the animals and the parasitemia was determined. The bars represent the median parasitemia (n=4 for controls and n=5 for treated).
The antimalarial activity of CNI-0294 in vivo was assessed by infecting female ND4 Swiss Webster mice with 100 μl of Plasmodium berghei NYU-2 infected mouse erythrocytes (50% parasitemia) by intraperitoneal injection. The animals were subsequently injected intraperitoneally once per day on days 1-4 of the infection with 0.5 ml water or 0.5 ml of 50 mg/kg CNI-0294 in water. Four hours after the final injection, small blood samples were taken from the tail, and thin smears stained with Dif-Quick (Baxter, Miami, Fla.). The parasitemia of control and treated animals was enumerated by inspection of at least 1000 erythrocytes in each animal.

nuclear localization = details: literature; cited from earlier work
[8] = DD2, read-out: IC50 ± standard deviation

CC(=O)c1cccc(Nc2cc(C)nc(N)n2)c1 [Compound No. 15, 4-(3-acetylphenyl)amino-2-amino-6-methylpyrimidine]
LD50 (median lethal dose) (mice): 49.04 ± 0.08 mg/kg
tolerability (mice): appreciably more lethal
signs and time of toxic reactions / death (mice; listed as CNI-1594): death occurring in minutes and the animals displaying signs of acute neurotoxicity; also recorded: suggested a lethal neurotoxicity
IC50 (HIV-1): 0.015 µM
Clearance [1]: 26.40 mL/min
A (zero time intercept, distribution phase) ([1]; i.p., 20 mg/kg, water): 1.10 µg/mL
B (zero time intercept, elimination phase) ([1]; i.p., 20 mg/kg, water): 0.01 µg/mL
VD ([1]; i.p., 20 mg/kg, water): 39.60 L
t1/2α ([1]; i.p., 20 mg/kg, water): 0.32 h
t1/2β ([1]; i.p., 20 mg/kg, water): 17.33 h
α ([1]; i.p., 20 mg/kg, water): 2.14 h⁻¹
IC50 [2, 8]: 23.7 ± 0.59 µM
IC50 relative to CNI-1194 and CNI-4594 ([2]; clone Dd2): equal to that for CNI-1194 or CNI-4594
CL/F (in vivo; ip, 20 mg/kg): 26.4 mL/min
k el (in vivo; ip, 20 mg/kg): 1.11e-05 s⁻¹
number of metabolites (in vitro): three minor and one major metabolite
metabolised at 1 h (in vitro): 11.7%

CC(=O)c1cc(Nc2cc(C)nc(N)n2)cc(C(C)=O)c1 [Compound No. 11, 2-amino-4-(3,5-diacetylphenyl)amino-6-methylpyrimidine]
LD50 (median lethal dose) (mice): > 160 mg/kg
tolerability (mice): also well tolerated
IC50 (HIV-1): 0.05 µM
Clearance [1]: 16.50 mL/min
A (zero time intercept, distribution phase) ([1]; i.p., 50 mg/kg, water): 5.22 µg/mL
B (zero time intercept, elimination phase) ([1]; i.p., 50 mg/kg, water): 0.14 µg/mL
t1/2α ([1]; i.p., 50 mg/kg, water): 0.38 h
t1/2β ([1]; i.p., 50 mg/kg, water): 3.65 h
α ([1]; i.p., 50 mg/kg, water): 1.83 h⁻¹
time drug was detectable in plasma ([1]; oral 50 mg/kg): at least 6 hr
relative bioavailability ([1]; oral vs i.p.): 15%
Bioavaliability ([1]; oral, 50 mg/kg, water, AUCoral/AUCi.p.): 0.15
relative bioavailability ([1]; single 50 mg/kg dose, AUCoral against AUCi.p.): 15%
IC50 [2, 8]: 20.3 ± 1.62 µM
fold less active than CNI-0294 ([2]; clone Dd2): approximately 5 fold
CL/F (in vivo; ip, 50 mg/kg): 16.5 mL/min
k el (in vivo; ip, 50 mg/kg): 5.28e-05 s⁻¹
number of metabolites (in vitro): three minor and one major metabolite
metabolised at 1 h (in vitro): 65.2%

CCc1nc(N)nc(N)c1-c1ccc(Cl)cc1 [Pyrimethamine, reference compound]
IC50 ([3]; read-out: Pyrimethamine IC50): 17.8 ± 13.5 µM
IC50 ([4]; FCR3, clone FCR-3, n = 2, read-out: Pyrimethamine IC50): 0.04 ± 0.01 µM
IC50 ([5]; clone D10, n = 2, read-out: Pyrimethamine IC50): 171 ± 24.6 µM
IC50 ([2]; DD2, read-out: Pyrimethamine IC50): 104 ± 9.79 µM
IC50 ([6]; clone HB3, n = 2, read-out: Pyrimethamine IC50): 8.97 ± 2.75 µM

CC(=O)c1cc(Nc2cc(C)[n+](C)c(N)n2)cc(C(C)=O)c1.[Cl-] [CNI-0294, 2-amino-4-(3,5-diacetylphenyl)amino-1,6-dimethylpyrimidinium chloride]
IC50 ([3]; read-out: CNI-0294 IC50): 2.29 ± 0.22 µM
LD50 [7]: 588 ± 65.8 mg/kg
signs and time of toxic reactions / death (mice): no overt signs of toxicity detectable at doses approaching the LD50
tolerability (mice): very well tolerated; also recorded: well tolerated
IC50 ([4]; FCR3, read-out: CNI-0294 IC50): 3.09 ± 0.3 µM
relative bioavailability ([1]; mouse, in vivo): 6%
relative bioavailability ([1]; mouse, in vivo, 50 mg/kg): 6%
A (zero time intercept, distribution phase) ([1]; mouse, in vivo, ip, 50 mg/kg): 14.00 and 16.07
B (zero time intercept, elimination phase) ([1]; mouse, in vivo, ip, 50 mg/kg): 0.07 and 0.05
Cltot ([1]; mouse, in vivo, ip, 50 mg/kg): 62.70
VD ([1]; mouse, in vivo, ip, 50 mg/kg): 19.80
duration of therapeutic plasma concentration (range of P. falciparum IC50) ([1]; mouse, in vivo, ip, 50 mg/kg): approximately one
plasma maximal concentration ([1]; mouse, in vivo, ip, 50 mg/kg): 18.76 to 18.93 µg/mL
t1/2α ([1]; mouse, in vivo, ip, 50 mg/kg): 0.62 and 0.40
t1/2β ([1]; mouse, in vivo, ip, 50 mg/kg): 4.62 and 3.65
tmax ([1]; mouse, in vivo, ip, 50 mg/kg): 5
α ([1]; mouse, in vivo, ip, 50 mg/kg): 1.12 and 1.74
β ([1]; mouse, in vivo, ip, 50 mg/kg): 0.19
Bioavaliability ([1]; mouse, in vivo, po, 50 mg/kg): 0.06
time drug was detectable in plasma ([1]; mouse, in vivo, po, 50 mg/kg): at least 6 hr
IC50 ([5]; D10, read-out: CNI-0294 IC50): 4 ± 0.41 µM
anti-malarial activity in vitro (Plasmodium falciparum): considerable anti-malarial activity; also recorded: effective against various clones of P. falciparum
IC50 (Plasmodium falciparum; Plasmodium falciparum, series of cloned parasites, read-out: median inhibitory concentration (IC50)): 1.79 to 4 µM
suppression / cure of P. berghei infection (Plasmodium berghei; 50 mg/kg i.p. daily for 4 days): strongly suppress P. berghei infection in mice; also recorded: not completely cured
reduction of parasitemia (Plasmodium berghei; 50 mg/kg i.p. once daily for four days, P≤0.01): 10 fold
IC50 ([2]; DD2, read-out: CNI-0294 IC50): 3.52 ± 0.1 µM
IC50 [2, 8]: 3.67 ± 0.57 µM
CL/F (in vivo; ip, 50 mg/kg): 35.4 mL/min
Cmax (in vivo; ip, 50 mg/kg): 18800 ng/mL
Vd/F (in vivo; ip, 50 mg/kg): 14.1 L
k el (in vivo; ip, 50 mg/kg): 4.17e-05 s⁻¹
Cmax (in vivo; po, 50 mg/kg): 400 ng/mL
IC50 ([6]; HB3, read-out: CNI-0294 IC50): 1.79 ± 0.27 µM
number of metabolites (in vitro): three minor and one major metabolite
metabolised at 1 h (in vitro): 43.5%

Nc1nc2c(ncn2[C@@H]2O[C@H](COP(=O)(O)OP(=O)(O)OP(O)(O)=S)[C@@H](O)[C@H]2O)c(=O)[nH]1 [(γ-S)GTP]
inhibition of nuclear localization (nuclear localization): blocked
